Reference: ChEMBL document CHEMBL1155618, “Junceellolides E-G, new briarane diterpenes from the West Pacific Ocean gorgonian Junceella fragilis” (J Nat Prod, 2000)
Activity calls are given as the source filed them.

What was measured:
Type in all cases: functional, cell-based
[1] = test system: A549; test: Cytotoxicity against human A549 cells
[2] = test system: HT-29; test: Cytotoxicity against human HT29 cells
[3] = test system: P388; test: Cytotoxicity against mouse P388 cells

Measured: Activity

CCC(=O)O[C@@H]1CC/C(C)=C\[C@@H]2OC(=O)[C@H](C)[C@@]2(O)[C@H](OC(C)=O)[C@H]2[C@]3(CC[C@H](OC(C)=O)[C@]12C)CO3
inactive: [1] | [2] | [3]

CC(=O)O[C@@H]1[C@@H]2[C@@](C)([C@H](O)CC/C(C)=C\[C@@H]3OC(=O)[C@H](C)[C@]31O)[C@@H](O)CC[C@]2(C)O
inactive: [1] | [2] | [3]

C=C1CC[C@H](OC(C)=O)[C@@]2(C)[C@H]1[C@@H](OC(C)=O)[C@@]1(O)[C@H](/C=C(/C)CC[C@H]2OC(C)=O)OC(=O)[C@@H]1C
inactive: [1] | [2] | [3]

C=C1CC[C@H](OC(C)=O)[C@@]2(C)[C@H]1[C@@H](OC(C)=O)[C@@]1(O)[C@H](/C=C(/C)CC[C@H]2OC(=O)CC)OC(=O)[C@@H]1C
inactive: [1] | [2] | [3]
